How the values were obtained:
[1] = target: 3',5'-cyclic-AMP phosphodiesterase 4B (Homo sapiens, UniProt Q07343); test: Inhibition of human PDE4B1 incubated for 10 mins using cAMP and [3H]cAMP substrates
[2] = target: 3',5'-cyclic-AMP phosphodiesterase 4D (Homo sapiens, UniProt Q08499); test: Inhibition of human PDE4D3 incubated for 10 mins using cAMP and [3H]cAMP substrates
[3] = organism: Homo sapiens; test: Selectivity ratio, ratio of IC50 for human PDE4D3 to IC50 for human PDE4B1
[4] = Oral bioavailability in mouse; assay type: ADME, organism-based; settings: in vivo
[5] = target: T1, Cytochrome P450 1A2 (Homo sapiens, UniProt P05177); test: Inhibition of CYP1A2; assay type: ADME
T1 sequence (P05177 whole entry): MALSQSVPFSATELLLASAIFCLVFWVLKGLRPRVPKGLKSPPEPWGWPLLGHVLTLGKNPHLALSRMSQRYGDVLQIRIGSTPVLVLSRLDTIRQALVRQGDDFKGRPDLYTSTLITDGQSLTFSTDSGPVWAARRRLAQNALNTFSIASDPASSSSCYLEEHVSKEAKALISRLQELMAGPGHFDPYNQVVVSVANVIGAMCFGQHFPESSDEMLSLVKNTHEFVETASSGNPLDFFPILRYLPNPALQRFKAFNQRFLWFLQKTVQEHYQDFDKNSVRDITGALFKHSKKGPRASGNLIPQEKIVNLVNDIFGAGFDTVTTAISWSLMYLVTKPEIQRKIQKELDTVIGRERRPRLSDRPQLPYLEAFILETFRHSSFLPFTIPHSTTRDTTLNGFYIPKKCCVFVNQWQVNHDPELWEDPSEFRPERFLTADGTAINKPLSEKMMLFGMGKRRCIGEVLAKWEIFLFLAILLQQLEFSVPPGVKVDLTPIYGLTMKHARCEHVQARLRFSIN

[6] = target: Cytochrome P450 3A4 (Homo sapiens, UniProt P08684); test: Inhibition of CYP3A4; assay type: ADME
[7] = target: Cytochrome P450 2C9 (Homo sapiens, UniProt P11712); test: Inhibition of CYP2C9; assay type: ADME
[8] = target: Cytochrome P450 2D6 (Homo sapiens, UniProt P10635); test: Inhibition of CYP2D6; assay type: ADME
[9] = AUC (0 to infinity) in mouse at 2 mg/kg, po; assay type: ADME, organism-based; set-up: time infinity, dose 2 mg/kg, route oral; settings: plasma
[10] = Cmax in mouse at 2 mg/kg, po; assay type: ADME, organism-based; set-up: dose 2 mg/kg, route oral; settings: in vivo
[11] = AUC (0 to infinity) in ferret at 2 mg/kg, po; assay type: ADME, organism-based, Mustela putorius furo; set-up: time infinity, dose 2 mg/kg, route oral; settings: plasma
[12] = Cmax in ferret at 2 mg/kg, po; assay type: ADME, organism-based, Mustela putorius furo; set-up: dose 2 mg/kg, route oral; settings: in vivo
[13] = system: Mustela putorius furo; test: Toxicity in ferret assessed as induction of emesis at 10 mg/kg, po measured 6 hrs post dose; assay type: organism-based; set-up: dose 10 mg/kg, route oral; settings: in vivo
[14] = system: Mus musculus; test: Inhibition of LPS-induced TNFalpha production in po dosed mouse; assay type: functional; settings: read-out: ID50 (the source's name)
[15] = system: Mustela putorius furo; test: Inhibition of […] in ferret assessed as inhibition of LPS-induced change in number of neutrophils in lung lavage at 10 mg/kg, po; assay type: functional
[16] = system: Mustela putorius furo; test: Toxicity in ferret assessed as induction of emesis at 0.3 mg/kg, po measured 6 hrs post dose; assay type: organism-based; set-up: dose 0.3 mg/kg, route oral; settings: in vivo
[17] = system: Mustela putorius furo; test: Toxicity in ferret assessed as induction of emesis at 1 mg/kg, po measured 6 hrs post dose; assay type: organism-based; set-up: dose 1 mg/kg, route oral; settings: in vivo
[18] = system: Mustela putorius furo; test: Toxicity in ferret assessed as induction of emesis at 100 mg/kg, po measured 6 hrs post dose; assay type: organism-based; set-up: dose 100 mg/kg, route oral; settings: in vivo
[19] = system: Mustela putorius furo; test: Toxicity in ferret assessed as induction of emesis at 200 mg/kg, po measured 6 hrs post dose; assay type: organism-based; set-up: dose 200 mg/kg, route oral; settings: in vivo
[20] = Inhibition of PDE1
[21] = Inhibition of PDE3
[22] = target: cGMP-specific 3',5'-cyclic phosphodiesterase (Homo sapiens, UniProt O76074); test: Inhibition of PDE5
[23] = Inhibition of PDE6
[24] = system: Mustela putorius furo; test: Inhibition of […] in ferret assessed as inhibition of LPS-induced change in number of neutrophils in lung lavage at 12.5 mg/kg, po; assay type: functional
[25] = system: Mustela putorius furo; test: Inhibition of […] in ferret assessed as inhibition of LPS-induced change in number of neutrophils in lung lavage at 25 mg/kg, po; assay type: functional

3',5'-cyclic-AMP phosphodiesterase 4D, sequence (Q08499 whole entry): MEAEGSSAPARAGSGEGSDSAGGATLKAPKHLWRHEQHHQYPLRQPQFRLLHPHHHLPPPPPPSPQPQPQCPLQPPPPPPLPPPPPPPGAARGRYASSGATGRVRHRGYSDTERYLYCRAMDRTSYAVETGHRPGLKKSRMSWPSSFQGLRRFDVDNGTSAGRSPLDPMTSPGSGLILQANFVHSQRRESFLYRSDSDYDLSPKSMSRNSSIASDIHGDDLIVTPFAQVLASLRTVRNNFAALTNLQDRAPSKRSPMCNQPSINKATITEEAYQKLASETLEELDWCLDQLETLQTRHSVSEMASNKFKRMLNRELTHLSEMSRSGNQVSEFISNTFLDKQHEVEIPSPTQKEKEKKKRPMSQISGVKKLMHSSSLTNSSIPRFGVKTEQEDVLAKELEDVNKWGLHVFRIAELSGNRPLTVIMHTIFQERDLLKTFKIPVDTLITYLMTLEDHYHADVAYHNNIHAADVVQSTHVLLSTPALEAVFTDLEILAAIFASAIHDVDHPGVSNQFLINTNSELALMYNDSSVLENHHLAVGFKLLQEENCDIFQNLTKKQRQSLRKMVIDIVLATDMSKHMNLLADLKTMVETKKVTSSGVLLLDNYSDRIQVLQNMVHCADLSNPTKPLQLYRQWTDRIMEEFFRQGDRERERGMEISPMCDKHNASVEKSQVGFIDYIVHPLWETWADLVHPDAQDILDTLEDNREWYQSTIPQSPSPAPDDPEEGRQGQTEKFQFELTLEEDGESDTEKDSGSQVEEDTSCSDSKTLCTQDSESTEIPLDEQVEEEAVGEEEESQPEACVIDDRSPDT
3',5'-cyclic-AMP phosphodiesterase 4B, sequence (Q07343 whole entry): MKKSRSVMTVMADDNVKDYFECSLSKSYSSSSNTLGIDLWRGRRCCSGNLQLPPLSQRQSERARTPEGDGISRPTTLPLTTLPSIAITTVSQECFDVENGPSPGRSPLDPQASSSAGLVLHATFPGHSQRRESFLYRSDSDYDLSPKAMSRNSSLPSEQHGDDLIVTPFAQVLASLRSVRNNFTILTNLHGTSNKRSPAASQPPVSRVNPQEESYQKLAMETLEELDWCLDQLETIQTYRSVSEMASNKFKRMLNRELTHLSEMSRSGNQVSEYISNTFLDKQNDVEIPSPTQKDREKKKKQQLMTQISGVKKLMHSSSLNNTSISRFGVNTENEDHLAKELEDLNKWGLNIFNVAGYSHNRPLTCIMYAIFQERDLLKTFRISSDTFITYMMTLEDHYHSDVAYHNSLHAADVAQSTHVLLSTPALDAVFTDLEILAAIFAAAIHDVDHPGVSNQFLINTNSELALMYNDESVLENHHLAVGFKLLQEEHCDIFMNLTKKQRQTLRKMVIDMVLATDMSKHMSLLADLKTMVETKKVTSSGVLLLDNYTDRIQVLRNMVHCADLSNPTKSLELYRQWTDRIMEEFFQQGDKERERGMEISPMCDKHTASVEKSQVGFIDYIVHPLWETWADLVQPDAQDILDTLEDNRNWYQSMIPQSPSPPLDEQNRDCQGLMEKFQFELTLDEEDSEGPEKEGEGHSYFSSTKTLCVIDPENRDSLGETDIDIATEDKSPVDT
Cytochrome P450 2D6, sequence (P10635 whole entry): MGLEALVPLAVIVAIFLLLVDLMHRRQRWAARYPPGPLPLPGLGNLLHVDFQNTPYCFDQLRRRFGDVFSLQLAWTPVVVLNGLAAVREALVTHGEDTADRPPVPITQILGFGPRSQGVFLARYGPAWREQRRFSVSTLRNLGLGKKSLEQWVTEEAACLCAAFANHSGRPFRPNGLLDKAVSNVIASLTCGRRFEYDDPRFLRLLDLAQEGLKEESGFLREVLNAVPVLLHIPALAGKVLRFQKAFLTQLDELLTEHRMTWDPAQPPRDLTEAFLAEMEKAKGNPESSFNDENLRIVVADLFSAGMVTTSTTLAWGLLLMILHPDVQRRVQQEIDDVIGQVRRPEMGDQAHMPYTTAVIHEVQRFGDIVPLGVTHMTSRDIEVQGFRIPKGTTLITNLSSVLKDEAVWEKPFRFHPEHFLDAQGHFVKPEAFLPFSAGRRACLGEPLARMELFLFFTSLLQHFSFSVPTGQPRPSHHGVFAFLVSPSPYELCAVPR
Cytochrome P450 2C9, sequence (P11712 whole entry): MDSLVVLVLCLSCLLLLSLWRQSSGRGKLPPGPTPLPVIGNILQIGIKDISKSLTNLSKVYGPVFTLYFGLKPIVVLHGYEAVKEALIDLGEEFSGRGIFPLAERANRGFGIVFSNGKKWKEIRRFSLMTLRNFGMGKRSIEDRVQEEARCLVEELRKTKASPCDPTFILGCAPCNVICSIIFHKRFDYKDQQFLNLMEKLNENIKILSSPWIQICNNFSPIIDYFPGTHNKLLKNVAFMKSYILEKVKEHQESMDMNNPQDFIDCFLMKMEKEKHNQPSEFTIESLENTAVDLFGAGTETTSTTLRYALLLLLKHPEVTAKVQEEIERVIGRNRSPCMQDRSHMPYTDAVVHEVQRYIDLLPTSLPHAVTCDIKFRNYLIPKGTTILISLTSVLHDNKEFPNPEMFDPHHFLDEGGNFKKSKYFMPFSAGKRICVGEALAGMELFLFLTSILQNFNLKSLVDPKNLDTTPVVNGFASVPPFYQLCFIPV
Cytochrome P450 3A4, sequence (P08684 whole entry): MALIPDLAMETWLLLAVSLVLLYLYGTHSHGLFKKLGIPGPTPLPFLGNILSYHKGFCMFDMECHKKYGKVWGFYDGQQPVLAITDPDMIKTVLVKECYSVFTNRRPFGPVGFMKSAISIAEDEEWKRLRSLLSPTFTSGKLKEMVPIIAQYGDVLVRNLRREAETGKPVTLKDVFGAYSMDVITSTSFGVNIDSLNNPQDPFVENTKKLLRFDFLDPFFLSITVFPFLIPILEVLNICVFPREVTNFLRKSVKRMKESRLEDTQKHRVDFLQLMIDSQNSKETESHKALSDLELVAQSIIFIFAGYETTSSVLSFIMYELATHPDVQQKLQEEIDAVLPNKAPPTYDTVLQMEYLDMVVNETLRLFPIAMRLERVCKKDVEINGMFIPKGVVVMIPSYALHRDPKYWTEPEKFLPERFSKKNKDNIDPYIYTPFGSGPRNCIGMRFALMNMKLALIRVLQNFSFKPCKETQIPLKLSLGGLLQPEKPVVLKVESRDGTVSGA

Row | Structure (SMILES) | IC50 [1] [µM] | IC50 [2] [µM] | Ratio IC50 [3] | other results
1 | C=CCc1c(CC)nc(-c2ccccc2)nc1Nc1ccc(C(=O)O)cc1 | 0.034 | 0.082 | 2.4 | 
2 | C=CCc1c(C)nc(-c2csc(C)n2)nc1Nc1ccc(C(=O)O)cc1 | 2.8 | 12 | 4.2 | 
3 | Cc1nc(-c2ccccc2)nc(Nc2ccc(C(=O)O)cc2)c1C(C)C | > 1 |  |  | 
4 | C=CCc1c(C)nc(-c2cccc(C)c2)nc1Nc1ccc(C(=O)O)cc1 | 0.21 | 1.5 | 6.9 | 
5 | CCc1c(C)nc(-c2ccc(SC)s2)nc1Nc1ccc(CC(=O)O)cc1 | 0.034 | 1.5 | 43 | 
6 | C=CCc1c(C)nc(-c2ccc(C)s2)nc1Nc1ccc(CC(=O)O)cc1 | 0.32 | 8.8 | 28 | 
7 | COc1ccc([C@]2(C#N)CC[C@@H](C(=O)O)CC2)cc1OC1CCCC1 [CILOMILAST] |  |  |  | Activity [13]: Toxic; ED50 [14]: 2.2 mg/kg; inhibition in vivo at 10 mg/kg [15]: 35%; Activity [16]: Non-toxic; Activity [17]: Toxic
8 | C=CCc1c(C)nc(-c2ccccc2)nc1Nc1ccc(CC(=O)O)cc1 | 1.8 | > 10 |  | 
9 | Cc1nc(-c2ccccc2)nc(Nc2ccc(C(=O)O)cc2)c1C=O | 0.3 | 1.5 | 5.2 | 
10 | CCc1c(C)nc(-c2ccc(Cl)s2)nc1Nc1ccc(CC(=O)O)cc1 | 0.015 | 1.7 | 114 | Activity [18]: Non-toxic; Activity [19]: Toxic; IC50 [20]: > 2 µM; IC50 [21]: > 2 µM; IC50 [22]: > 2 µM; IC50 [23]: > 2 µM; bioavailability [4]: 85%; IC50 [5]: > 10 µM; IC50 [6]: > 10 µM; IC50 [7]: > 10 µM; IC50 [8]: > 10 µM; AUC(0-inf) [9]: 52300 ng·h/mL; Cmax [10]: 8700 ng/mL; AUC(0-inf) [11]: 33500 ng·h/mL; Cmax [12]: 4500 ng/mL; ED50 [14]: 14 mg/kg; inhibition in vivo at 12.5 mg/kg [24]: 44%; inhibition in vivo at 25 mg/kg [25]: 46%
11 | CCCCc1c(C)nc(-c2ccccc2)nc1Nc1ccc(C(=O)O)cc1 | > 1 |  |  | 
12 | C=CCc1c(C)nc(-c2ccccn2)nc1Nc1ccc(C(=O)O)cc1 | 3.7 | 15 | 4.1 | 
13 | C=CCc1c(C)nc(-c2cnccn2)nc1Nc1ccc(C(=O)O)cc1 | 0.86 | 3 | 3.5 | 
14 | Cc1nc(-c2ccccc2)nc(Nc2ccc(C(=O)O)cc2)c1C#N | 0.12 | 1.5 | 12 | 
15 | C=CCc1c(CCC)nc(-c2ccccc2)nc1Nc1ccc(C(=O)O)cc1 | 0.69 | 2.4 | 3.4 | 
16 | C=CCc1c(C)nc(-c2cccs2)nc1Nc1ccc(C(=O)O)cc1 | 0.12 | 1.3 | 11 | 
17 | C=CCc1c(C)nc(-c2ccc(OC)cc2)nc1Nc1ccc(C(=O)O)cc1 | 0.22 | 2 | 8.9 | 
18 | Cc1nc(-c2ccccc2)nc(Nc2ccc(C(=O)O)cc2)c1CN | > 1 |  |  | 
19 | C=CCc1c(C)nc(-c2ccc(C)cc2)nc1Nc1ccc(C(=O)O)cc1 | 0.22 | 2.8 | 13 | 
20 | C=CCc1c(C)nc(-c2ccc(C)s2)nc1Nc1ccc(C(=O)O)cc1 | 0.15 | 1.3 | 8.6 | 

Now from value to compound, other results behind:

Row | IC50 [1] [µM] | IC50 [2] [µM] | Ratio IC50 [3] | Structure (SMILES) | other results
21 | 1.2 | 9.9 | 8 | C=CCc1c(C)nc(-c2cccc(C)c2)nc1Nc1ccc(CC(=O)O)cc1 | 
22 | 0.019 | 1.6 | 87 | CCc1c(C)nc(-c2ccc(Br)s2)nc1Nc1ccc(CC(=O)O)cc1 | 
23 | 0.43 | 3.4 | 7.9 | Cc1nc(-c2ccccc2)nc(Nc2ccc(C(=O)O)cc2)c1C | 
24 | 0.14 | 2.1 | 15 | CCc1c(C)nc(-c2ccccc2)nc1Nc1ccc(C(=O)O)cc1 | 
25 | 0.54 | 8 | 15 | Cc1nc(-c2ccccc2)nc(Nc2ccc(C(=O)O)cc2)c1CO | 
26 | 0.015 | 3.1 | 205 | CCc1c(C)nc(-c2ccc(F)s2)nc1Nc1ccc(CC(=O)O)cc1F | bioavailability [4]: 73%; IC50 [5]: > 10 µM; IC50 [6]: > 10 µM; IC50 [7]: > 10 µM; IC50 [8]: > 10 µM; AUC(0-inf) [9]: 21900 ng·h/mL; Cmax [10]: 10900 ng/mL; AUC(0-inf) [11]: 341000 ng·h/mL; Cmax [12]: 14800 ng/mL
27 | 1.3 | 7.6 | 5.6 | CCCc1c(C)nc(-c2ccccc2)nc1Nc1ccc(C(=O)O)cc1 | 
28 | 0.19 | 1.9 | 9.7 | C=CCc1c(C)nc(-c2ccccc2)nc1Nc1ccc(C(=O)O)cc1 | 
29 | 0.19 | 5.3 | 29 | C=CCc1c(C)nc(-c2ccc(OC)s2)nc1Nc1ccc(CC(=O)O)cc1 | 
30 | 0.0068 | 2.9 | 420 | CCc1c(C)nc(-c2cc(Br)c(C)s2)nc1Nc1ccc(CC(=O)O)cc1 | 
31 | 0.94 | 11 | 12 | C=CCc1c(C)nc(-c2ccc(C)cc2)nc1Nc1ccc(CC(=O)O)cc1 | 
32 | 0.068 | 0.99 | 15 | C=CCc1c(C)nc(-c2ccsc2)nc1Nc1ccc(C(=O)O)cc1 | 
33 | > 1 |  |  | Cc1nc(-c2ccccc2)nc(Nc2ccc(C(=O)O)cc2)c1Cc1ccccc1 | 
34 | 0.078 | 0.76 | 9.8 | C=CCc1c(C)nc(-c2ccc(OC)s2)nc1Nc1ccc(C(=O)O)cc1 | 
35 | 0.6 | 4.8 | 8 | C=CCc1c(C)nc(-c2ccc(OC)cc2)nc1Nc1ccc(CC(=O)O)cc1 | 
36 | > 1 |  |  | C=CCc1c(Nc2ccc(C(=O)O)cc2)nc(-c2ccccc2)nc1C(C)C | 

From ChEMBL document CHEMBL1782001, “Discovery of selective PDE4B inhibitors” (Bioorg Med Chem Lett, 2009)
